# Where “and” joins values, the source holds several entries; their conditions need not be identical. Equal values may be shown once. Read-outs that look alike come from different tables or passages of the source.
# Tests used:
# [1] = tested on: B16 melanoma cells (highly metastatic subline, F10); assay: B16 melanoma in vitro cloning (colony forming) assay, 2 hour exposure; assay type: cell-based; conditions: read-out: IC50: concentration which inhibits cloning efficiency of B16 melanoma cells by 50%
# Procedure: Initially, the cytotoxic activity of the Formula (I) and Formula (IA) compounds used in the pharmaceutical compositions and methods of treatment of the instant invention was evaluated in vitro using B16 melanoma cells according to the following assay:
# B16 melanoma (highly metastatic subline, F10) are used and maintained as monolayer cultures in Minimal Essential Media (Grand Island Biological Co., Grand Island, N.Y. ) supplemented with 10% calf serum, 1% antibiotics in a 5% CO2 humidified incubator at 37° C. Asynchronous populations of cells are harvested and replated to 5000 cells/plate in sterile 60 mm×15 mm petri plates. Plates are incubated overnight to allow attachment of the cells to the plate. Cells are treated with a Formula (I) or Formula (IA) compound or cisplatin under sterile conditions, allowed to react for 2 hours followed by aspiration of medium. Plates are washed one time with 5 ml of phosphate buffered saline (PBS), followed by the addition of 5 ml of fresh media. Plates are incubated for 5 days at 37° in a CO2 incubator. Viability is measured by the ability of a cell to form a colony of greater than 50 cells. Colonies are fixed with 0.5% crystal violet in 95% ethanol. Plates are dried and counted with a Biotran III Automatic Count Totalizer (New Brunswick Scientific Co., Edison, N.J.). Mean and standard deviation of triplicate samples are determined for each drug concentration. The data are analyzed by plotting the log of the survival fraction (number of colonies in drug treated plates/number of colonies in controls) versus the drug concentration.
# ^(a) concentration which inhibits cloning efficiency of B16 melanoma
# cells by 50% on a 2hour exposure.
# [2] = tested on: Corpus uterus tumor; conditions: Table 3, Corpus uterus; response = ≤50% survival of tumor colony forming units
# Text: (§4) Tumor Specimens: Specimens were collected using asceptic technique and transported in medium containing Penicillin, Streptomycin, and Amphotericin B. Specimens which could not be immediately processed were minced into fragments 5 mm^3 or smaller, prior to transport. Effusions were collected with ten units of preservative free heparin per ml of effusion. Specimens were processed to obtain cell suspensions as soon as possible after removal from the patient.
# (§5) Culture Methods: A two-layer soft agar culture system was used in these studies. […] Cell counts were performed on a hemacytometer after lysis of erythrocytes in acetic acid. A total of 500,000 nucleated cells were plated in a volume of 1 ml (0.3 percent agar) over 1 ml base layers (0.6 percent agar) in each culture. Cultures were incubated in humidified 37° C. incubators with an atmosphere of 5 percent CO2 in air and control plates monitored for growth using an inverted microscope. At the time of maximum colony formation (7-21 days in culture) final colony counts were obtained with a Bausch and Lomb FAS II image analysis system. Objects presenting a circular profile in two dimensions with a minimum diameter of 60 μm were scored as colonies by the system.
# (§6) Drug Treatment: A total of six untreated or vehicle treated cultures were plated for determination of control growth in each experiment. […]
# [3] = tested on: Lung tumor; conditions: Table 3, Lung; response = ≤50% survival of tumor colony forming units
# Text: as §4, §5, §6
# [4] = tested on: Melanoma; conditions: Table 3, Melanoma; response = ≤50% survival of tumor colony forming units
# Text: as §4, §5, §6
# [5] = tested on: Breast tumor; conditions: Table 3, Breast; response = ≤50% survival of tumor colony forming units
# Text: as §4, §5, §6
# [6] = tested on: mammary adenocarcinoma 16/c; assay: sc mammary adenocarcinoma 16/c assay
# Procedure: (§7) The mammary adenocarcinoma 16/c tumor is implanted sc in C3H mice, and the Formula (I) compound is administered ip on days 1, 5, 9, 13 and 17. Tumors are measured 3 weeks after implantation, and activity is assessed by degree of tumor growth inhibition.
# [7] = tested on: B16 melanoma; assay: in vivo ip B16 melanoma assay
# Procedure: (§8) The cytotoxic activity of several compounds of Formula (I) was evaluated in vivo using B16 melanoma cells according to the following assay:
# (§9) In this system, groups of eight B6D2F1 mice are inoculated ip with 0.5 ml of a 10% (w:v) brei of B16 melanoma prepared from pooled sc tumors excised at 14.noteq.21 days from C67B1 /6 donor mice. Daily treatment is begun 24 hours after tumor implantation and is continued daily for 10 days. The route of drug administration is ip. The mice are monitored daily for survival for 60 days. Antitumor activity is assessed by prolongation of median survival time.
# [8] = tested on: ADJ-PC6 Plasmacytoma; assay: ADJ-PC6 plasmacytoma assay
# Procedure: (§1) Tumor cells are carried by serial sc passage in BALB/c female mice and then collected aseptically on ca. Day 21 and minced in Hank's balanced salt solution. The cells are then dispersed by homogenization in a loose-fitting teflon glass homogenizer, and cell concentration is adjusted to 4×10^6 viable ([…]) cells per ml by hemocytometer counts. A total of 0.5 ml (2×10^6 cells) is implanted sc on the right flank of BALB/c female mice in groups of 8. Treatment is given ip on Days 1-10, and tumors are measured in perpendicular diameters with a vernier caliper on Day 18.
# (§2) ^(b) maximally tolerated dose for BALB/c female mice on an ip qD
# [9] = tested on: Unknown primary tumor; conditions: Table 3, Unknown primary; response = ≤50% survival of tumor colony forming units
# Text: as §4, §5, §6
# [10] = tested on: P388 leukemia
# [11] = tested on: M5076 reticulum cell sarcoma; assay: ip M5076 reticulum cell sarcoma assay in mice; conditions: for MTD (maximally tolerated dose): B6D2F1 female mice; for MTD (maximally tolerated dose) / ILS max (maximum increase in lifespan): ip qD × 10; for ILS max (maximum increase in lifespan): ip M5076 sarcoma mice, slash = separate experiments
# Procedure: Another chemosensitive tumor model is intraperitoneally (ip) implanted M5076 reticulum cell sarcoma in mice. In this system B6D2F1 female mice are inoculated with 0.5 ml of a 10 percent weight:volume (w:v) brei of M5076 prepared from pooled subcutaneous (sc) tumors excised at about 21 days from c57B1/6 donor mice. Drugs are administered ip. Daily treatment is begun 24 hours after implantation and is continued for ten days. The treatment regimen for M5076 is more prolonged than for P388 because of the slower growth rate and longer control survival time of the M5076 tumor.
# [12] = tested on: Ovary tumor; conditions: Table 3, Ovary; response = ≤50% survival of tumor colony forming units
# Text: as §4, §5, §6
# [13] = tested on: human tumor colony forming units; assay: human tumor cloning assay (all tumor types); assay type: cell-based
# Procedure: The cytotoxic activity of Compound No. 2 from TABLE A, namely μ-[1,2-bis(diphenylphosphino)ethane]bis-[chlorogold (I)], was also determined in a human tumor cloning assay. This procedure is described as follows:
# [Salmon, et al., N. Engl. J. Med., 298:1321 (1978)].
# [14] = tested on: Kidney tumor; conditions: Table 3, Kidney; response = ≤50% survival of tumor colony forming units
# Text: as §4, §5, §6
# [15] = in vivo; conditions: mouse, ip
# [16] = sc mammary adenocarcinoma 16/c assay; conditions: mouse, in vivo
# Procedure: as §7
# [17] = tested on: Lewis Lung tumor; assay: ip Lewis Lung tumor assay; assay type: in vivo; set-up: ILS: dose or concentration left out as unconfirmed; conditions: at MTD of […] mg/kg, q4D×4 regimen
# Text: (§3) The protocol for carrying out this tumor assay is well known to those of skill in the art.
# [18] = ip Lewis Lung tumor assay; assay type: in vivo; set-up: ILS: dose or concentration left out as unconfirmed; conditions: in vivo; q4D×4 regimen
# Text: as §3
# [19] = tested on: cells; conditions: Struck et al., J. Med. Chem. (1966); cited from earlier work
# [20] = in vivo ip B16 melanoma assay; conditions: mouse, in vivo, ip
# Procedure: as §8, §9
# [21] = ADJ-PC6 plasmacytoma assay; conditions: mouse, in vivo, ip
# Procedure: as §1, §2
# [22] = tested on: Madison 109 lung carcinoma; assay: ip Madison 109 lung carcinoma tumor assay; conditions: at MTD of 16 mg/kg, q4D×4 regimen
# [23] = ip Madison 109 lung carcinoma tumor assay; conditions: in vivo
# [24] = Table 1, ≤30% survival of tumor colony forming units, 10 μg/ml, continuous exposure
# [25] = Table 1, ≤50% survival of tumor colony forming units, 10 μg/ml, continuous exposure
# [26] = Table 3, all tumor types, response = ≤50% survival of tumor colony forming units
smiles,measurement,setting,value
"[Cl][Au][PH](CC[PH]([Au][Cl])(c1ccccc1)c1ccccc1)(c1ccccc1)c1ccccc1 [Compound 2, μ-[1,2-bis(diphenylphosphino)ethane]bis-[chlorogold (I)]]",IC50,"[1]; Table A, Formula (I)",8 µM
same,# responses/# evaluable,[2],1/1
same,# responses/# evaluable,[3],1/3
same,# responses/# evaluable,[4],0/1
same,# responses/# evaluable,[5],1/3
same,MTD (maximally tolerated dose),"[6]; Table F, C3H mice, intermittent ip regimen",9 um/kg
same,MTD (maximally tolerated dose),"[7]; Table E, B6D2F1 mice, ip qD × 10",5 um/kg
same,% Inhibition of tumor growth,"[8]; Table G, ip days 1-10, tumors measured day 18, slash = separate experiments",96% and 93%
same,antitumor activity in ADJ-PC6 Plasmacytoma,"[8]; in words, based on Table G",excellent antitumor activity
same,# responses/# evaluable,[9],2/3
same,MTD (maximally tolerated dose),"[10]; Table B, B6D2F1 female mice, ip qD × 5",6 mg/kg
same,MTD (maximally tolerated dose),[11]; Table C,4 mg/kg
same,ILS max (maximum increase in lifespan),"[11]; Table C, compound 2: seven experiments",76 ± 30%
same,activity in the ip M5076 reticulum cell sarcoma assay,"[11]; in words, based on Tables C and D",good activity
same,# responses/# evaluable,[12],4/6
same,# responses ≤30%/# evaluable,[13]; [24],6/19
same,responses ≤30% (% of evaluable),[13]; [24],32%
same,# responses ≤50%/# evaluable,[13]; [25],11/19
same,responses ≤50% (% of evaluable),[13]; [25],58%
same,"# responses/# evaluable, TOTALS",[13]; [26],11/19
same,"responses, TOTALS (% of evaluable)",[13]; [26],58%
same,in vitro cytotoxic activity against primary human tumor cells,[13]; in words,substantial in vitro cytotoxic activity
same,# responses/# evaluable,[14],2/2
"c1ccc(P(CCP(c2ccccc2)c2ccccc2)c2ccccc2)cc1 [Compound 33, bis(1,2-diphenylphosphino)-ethane]",IC50,"[1]; Mus musculus, B16, Table AI, Formula (IA)",60 µM
same,MTD,[15],16 mg/kg
same,tumor inhibition,"[6]; iv, at MTD of 32 mg/kg",95%
same,MTD,[16]; ip,30 mg/kg
same,MTD,[16]; iv,32 mg/kg
same,ILS,[17],69%
same,MTD,[18],12 mg/kg
same,alleged cytotoxic activity,[19],alleged cytotoxic activity
same,ILS,"[7]; at MTD of 5 mg/kg, three separate experiments, listed as Compound No. 2 from Table BI, 5 mg/kg",64% and 49% and 39%
same,MTD,[20],5 mg/kg
same,MTD,[8]; one experiment,6 mg/kg
same,tumor growth inhibition,"[8]; one experiment, at MTD of 6 mg/kg",94%
same,tumor growth inhibition,"[8]; second experiment, at MTD of 4 mg/kg",49%
same,MTD,[21],4 mg/kg
same,ILS,[22],50%
same,MTD,[23],16 mg/kg
same,ILS (maximum increase in lifespan),"[10]; Table BI, ip P388 leukemia mice, ip days 1-5, slash-separated figures are separate experiments, compound 33: 41 experiments",98 ± 26%
same,MTD (maximally tolerated dose),[11]; Table D,6 mg/kg
same,ILS max (maximum increase in lifespan),[11]; Table D,70% and 96% and 68%

# — patent publication US4857549A, “Antitumor compounds” (priority 1988, dated 1989)
